These results are taken from patent publication US12692261B2, “Substituted heterocyclic compounds and therapeutic uses thereof” (Bayer Aktiengesellschaft, priority 2020, dated 2026).

Read-outs that look alike come from different tables or passages of the source.

Assay [1] deals with T1, wild-type Epidermal Growth Factor Receptor (EGFR) (Homo sapiens, UniProt P00533).
T1 construct: a fragment of human EGFR (amino acids R669 to A1210); made in house; host or cells: Sf9 insect cells
Description: WT-EGFR Kinase Assay (TR-FRET, 2 mM ATP). The assay is classed as biochemical. Summed up:
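GST-fused human EGFR fragment (R669-A1210) from Sf9 cells, typically 7.6 pg/μL, pre-incubated with compound 15 min at 22° C in Hepes pH 7.0 buffer with MgCl2, DTT and vanadate; biotinylated peptide substrate. After EDTA stop, phosphopeptide detected by TR-FRET (anti-phosphotyrosine Tb-cryptate/streptavidin-XL665), 665/620 nm emission ratio.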

Assay [2] addresses T2, full-length human CSNK1D (Homo sapiens, UniProt P48730).
T2 construct: N-terminal Glutathion-S-Transferase (GST) and full-length human CSNK1D; purchased Life Technologies PV3665; host or cells: baculovirus infected insect cells
Kind of assay: CSNK1D Assay (ADP-Glo, 1 μM ATP). The following applies: Table 3, read-out: CSNK1D IC50 [mol/l] (median). Format: biochemical. Summed up: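 ADP-Glo luminescence reports ADP generated by GST-fused full-length human CSNK1D (insect-cell expressed, about 0.5 ng/μL) acting on a biotinylated peptide at 1 μM ATP. Test compounds were pre-bound to enzyme 15 min at 22° C in 50 mM HEPES pH 7.5.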
For orientation: ADP-Glo turns the ADP formed in a reaction into a luminescent signal.

Where [3] appears, read: EGFR Wildtyp 2 mM ATP IC50 [mol/l] (median), Table 4.
Setting [4] is: read-out: EGFR Wildtyp 2 mM ATP IC50 [mol/l] (median), Table 4.

T1 sequence (P00533 669-1210): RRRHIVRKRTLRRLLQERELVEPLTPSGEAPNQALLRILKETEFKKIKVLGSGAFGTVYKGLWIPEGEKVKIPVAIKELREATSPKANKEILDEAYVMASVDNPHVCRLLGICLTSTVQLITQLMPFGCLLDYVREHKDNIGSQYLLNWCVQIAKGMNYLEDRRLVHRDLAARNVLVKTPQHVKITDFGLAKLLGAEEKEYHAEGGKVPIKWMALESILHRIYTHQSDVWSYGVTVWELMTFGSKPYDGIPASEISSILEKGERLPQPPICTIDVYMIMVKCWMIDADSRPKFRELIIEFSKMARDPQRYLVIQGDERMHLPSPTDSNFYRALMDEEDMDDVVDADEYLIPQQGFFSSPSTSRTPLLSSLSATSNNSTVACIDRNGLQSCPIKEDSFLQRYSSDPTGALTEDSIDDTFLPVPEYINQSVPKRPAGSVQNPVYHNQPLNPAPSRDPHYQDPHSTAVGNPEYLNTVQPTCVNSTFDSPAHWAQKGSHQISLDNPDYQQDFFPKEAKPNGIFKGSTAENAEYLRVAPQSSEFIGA
T2 sequence (P48730 whole entry): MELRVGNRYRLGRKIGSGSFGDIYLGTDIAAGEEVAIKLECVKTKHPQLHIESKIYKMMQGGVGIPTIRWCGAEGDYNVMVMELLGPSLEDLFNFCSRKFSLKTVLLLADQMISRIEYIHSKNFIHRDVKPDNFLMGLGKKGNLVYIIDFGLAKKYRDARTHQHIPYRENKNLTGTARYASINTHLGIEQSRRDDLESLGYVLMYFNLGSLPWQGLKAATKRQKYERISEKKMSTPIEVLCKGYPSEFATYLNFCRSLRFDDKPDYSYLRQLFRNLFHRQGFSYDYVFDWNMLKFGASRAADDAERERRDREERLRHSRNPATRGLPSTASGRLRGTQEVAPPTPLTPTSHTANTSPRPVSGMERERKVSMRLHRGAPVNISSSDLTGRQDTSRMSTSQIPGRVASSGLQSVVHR

With `Cc1ccc2[nH]c(-c3ccnc(NC(=O)C(CC(F)F)c4ccc(F)cc4)c3)c(-c3ccccn3)c2n1` (single isomer, unassigned) [Example 5, 4,4-difluoro-2-(4-fluorophenyl)-N-{4-[5-methyl-3-(pyridin-2-yl)-1H-pyrrolo[3,2-b]pyridin-2-yl]pyridin-2-yl}butanamide], the figures for the IC50 in assay [1] (setting [3]) and in assay [2] were above 20000 nM and 7.13 nM, respectively.

As to `O=C(Nc1cc(-c2[nH]c3cccnc3c2-c2ccccc2)ccn1)C(CC(F)F)c1ccc(F)cc1` (single isomer, unassigned; (+)) [Example 24, (+)-4,4-difluoro-2-(4-fluorophenyl)-N-[4-(3-phenyl-1H-pyrrolo[3,2-b]pyridin-2-yl)pyridin-2-yl]butanamide], the IC50 in assay [1] (setting [4]) was above 20000 nM; in assay [2], 2.48 nM.

Consider `O=C(Nc1cc(-c2[nH]c3ccc(F)nc3c2-c2ccc(F)cn2)ccn1)C(CC(F)F)c1ccc(F)cc1` (single isomer, unassigned; (-)) [Example 110, (−)-4,4-difluoro-N-{4-[5-fluoro-3-(5-fluoropyridin-2-yl)-1H-pyrrolo[3,2-b]pyridin-2-yl]pyridin-2-yl}-2-(4-fluorophenyl)butanamide], for which the IC50 in assay [1] (setting [4]) was above 20000 nM; in assay [2], 43 nM.

For `O=C(Nc1cc(-c2[nH]c3c(OCC(F)(F)F)ncnc3c2-c2ccccn2)ccn1)C(CC(F)(F)F)c1ccc(F)cc1` (single isomer, unassigned) [Example 127, (2R or S)-4,4,4-trifluoro-2-(4-fluorophenyl)-N-{4-[7-(pyridin-2-yl)-4-(2,2,2-trifluoroethoxy)-5H-pyrrolo[3,2-d]pyrimidin-6-yl]pyridin-2-yl}butanamide], the IC50 in assay [1] (setting [4]) was above 20000 nM; in assay [2] it was 88.1 nM.

For the compound `O=C(Nc1cc(-c2[nH]c3cc(F)cnc3c2-c2ccccc2)ccn1)C(CC(F)F)c1ccc(F)cc1` (racemic) [Example 19, 4,4-difluoro-2-(4-fluorophenyl)-N-[4-(6-fluoro-3-phenyl-1H-pyrrolo[3,2-b]pyridin-2-yl)pyridin-2-yl]butanamide], the IC50 in assay [1] (setting [3]) is above 20000 nM; in assay [2], 6.92 nM.

For the compound `O=C(Nc1cc(-c2[nH]c3c(OCC(F)(F)F)ncnc3c2-c2ccccn2)ccn1)C(CC(F)(F)F)c1ccc(F)cc1` (single isomer, unassigned) [Example 126, (2R or S)-4,4,4-trifluoro-2-(4-fluorophenyl)-N-{4-[7-(pyridin-2-yl)-4-(2,2,2-trifluoroethoxy)-5H-pyrrolo[3,2-d]pyrimidin-6-yl]pyridin-2-yl}butanamide], the IC50 is above 20000 nM in assay [1] (setting [3]) and 7.84 nM in assay [2].

For the compound `O=C(Nc1cc(-c2[nH]c3cc(F)cnc3c2-c2ccccn2)ccn1)C(CC(F)F)c1ccc(F)cc1` (racemic) [Example 16, 4,4-difluoro-2-(4-fluorophenyl)-N-{4-[6-fluoro-3-(pyridin-2-yl)-1H-pyrrolo[3,2-b]pyridin-2-yl]pyridin-2-yl}butanamide], the IC50 was above 20000 nM in assay [1] (setting [3]) and 4.57 nM in assay [2].

With `O=C(Nc1cc(-c2[nH]c3nccnc3c2-c2ccccn2)ccn1)C(CC(F)F)c1ccc(F)cc1` (racemic) [Example 31, (2RS)-4,4-difluoro-2-(4-fluorophenyl)-N-{4-[7-(pyridin-2-yl)-5H-pyrrolo[2,3-b]pyrazin-6-yl]pyridin-2-yl}butanamide], the results for the IC50 in assay [1] (setting [3]) and in assay [2] were above 20000 nM and 7.81 nM, respectively.

`O=C(Nc1cc(-c2[nH]c3nccnc3c2-c2ccccn2)ccn1)C(CC(F)(F)F)c1ccc(F)cc1` (single isomer, unassigned) [Example 121, (2R or S)-4,4,4-trifluoro-2-(4-fluorophenyl)-N-{4-[7-(pyridin-2-yl)-5H-pyrrolo[2,3-b]pyrazin-6-yl]pyridin-2-yl}butanamide]: the IC50 in assay [1] (setting [4]) is above 20000 nM; in assay [2], 62.9 nM.

Regarding `O=C(Nc1cc(-c2[nH]c3cccnc3c2-c2ncccn2)ccn1)C(CC(F)F)c1ccc(F)cc1` (racemic) [Example 112, (2RS)-4,4-difluoro-2-(4-fluorophenyl)-N-[4-(3-pyrimidin-2-yl-1H-pyrrolo[3,2-b]pyridin-2-yl)-2-pyridyl]butanamide], the values for the IC50 in assay [1] (setting [3]) and in assay [2] were above 20000 nM and 16.9 nM, respectively.

On to `COc1cc(F)nc2c(-c3ccccn3)c(-c3ccnc(NC(=O)C(CC(F)F)c4ccc(F)cc4)c3)[nH]c12` (racemic) [Example 39, (rac)-4,4-difluoro-N-{4-[5-fluoro-7-methoxy-3-(pyridin-2-yl)-1H-pyrrolo[3,2-b]pyridin-2-yl]pyridin-2-yl}-2-(4-fluorophenyl)butanamide], for which the IC50 in assay [1] (setting [3]) is above 20000 nM; in assay [2] it was 40.2 nM.

As to `CC(C)(O)c1cc(F)nc2c(-c3ccccn3)c(-c3ccnc(NC(=O)C(CC(F)F)c4ccc(F)cc4)c3)[nH]c12` (racemic) [Example 98, (2RS)-4,4-difluoro-N-{4-[5-fluoro-7-(2-hydroxypropan-2-yl)-3-(pyridin-2-yl)-1H-pyrrolo[3,2-b]pyridin-2-yl]pyridin-2-yl}-2-(4-fluorophenyl)butanamide], the IC50 in assay [1] (setting [3]) was above 20000 nM; in assay [2], 6.84 nM.

Turning to `O=C(Nc1cc(-c2[nH]c3nc(OC(F)F)cnc3c2-c2ccccn2)ccn1)C(CC(F)F)c1ccc(F)cc1` (stereo not shown) [Example 105, N-{4-[3-(difluoromethoxy)-7-(pyridin-2-yl)-5H-pyrrolo[2,3-b]pyrazin-6-yl]pyridin-2-yl}-4,4-difluoro-2-(4-fluorophenyl)butanamide], the values for the IC50 in assay [1] (setting [3]) and in assay [2] were above 20000 nM and 12.3 nM, respectively.

With `O=C(Nc1cc(-c2[nH]c3cc(F)cnc3c2-c2ccccc2)ccn1)C(CC(F)F)c1ccc(F)cc1` (single isomer, unassigned; (+)) [Example 21, (+)-4,4-difluoro-2-(4-fluorophenyl)-N-[4-(6-fluoro-3-phenyl-1H-pyrrolo[3,2-b]pyridin-2-yl)pyridin-2-yl]butanamide], the IC50 in assay [1] (setting [4]) was above 20000 nM; in assay [2], 3.59 nM.

For the compound `Cc1cc2[nH]c(-c3ccnc(NC(=O)C(CC(F)F)c4ccc(F)cc4)c3)c(-c3ccccn3)c2nc1F` (single isomer, unassigned) [Example 35, 4,4-difluoro-N-{4-[5-fluoro-6-methyl-3-(pyridin-2-yl)-1H-pyrrolo[3,2-b]pyridin-2-yl]pyridin-2-yl}-2-(4-fluorophenyl)butanamide], the IC50 in assay [1] (setting [4]) is above 20000 nM; in assay [2] it was 3.7 nM.

For `O=C(Nc1cc(-c2[nH]c3c(CC4CC4)cc(F)nc3c2-c2ccccn2)ccn1)C(CC(F)F)c1ccc(F)cc1` (single isomer, unassigned) [Example 48, (2R or S)—N-{4-[7-(cyclopropylmethyl)-5-fluoro-3-(pyridin-2-yl)-1H-pyrrolo[3,2-b]pyridin-2-yl]pyridin-2-yl}-4,4-difluoro-2-(4-fluorophenyl)butanamide], the IC50 in assay [1] (setting [4]) is above 20000 nM; in assay [2] it was 6.99 nM.

Turning to `COc1cc(F)nc2c(-c3ccccn3)c(-c3ccnc(NC(=O)C(CC(F)F)c4ccc(F)cc4)c3)[nH]c12` (single isomer, unassigned; (-)) [Example 41, (−)-4,4-difluoro-N-{4-[5-fluoro-7-methoxy-3-(pyridin-2-yl)-1H-pyrrolo[3,2-b]pyridin-2-yl]pyridin-2-yl}-2-(4-fluorophenyl)butanamide], the IC50 is above 20000 nM in assay [1] (setting [4]) and 4.13 nM in assay [2].
